# Experiments:
# Test in all cases: relative viability (nuclei count vs DMSO), 5 days (fraction); higher = more cells survive
# [1] = compound: C1CNCCC1C2=CC(=NN2)C3=CC=NC=C3 + CC1(C)CCC(c2ccc(Cl)cc2)=C(CN2CCN(c3ccc(C(=O)NS(=O)(=O)c4ccc(N[C@H](CCN5CCOCC5)CSc5ccccc5)c(S(=O)(=O)C(F)(F)F)c4)cc3)CC2)C1 [Navitoclax] (partner 0.5 µM)
# Method in brief: (§1)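 Dosing by pin tool came one day after lung cancer cell lines were seeded in 1536-well plates, using either one drug or a fixed anchor-drug dose plus five library-drug doses (not always all listed) in √10 steps. After 5 days, nuclei were counted on 4× images. Relative viability is treated-well nuclei count divided by vehicle-well nuclei count, and values are medians of duplicate plates.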
# [2] = compound: C[C@@H](N)c1ccc(C(=O)Nc2ccnc3[nH]ccc23)cc1 + CCNC(=O)c1noc(-c2cc(C(C)C)c(O)cc2O)c1-c1ccc(CN2CCOCC2)cc1 [Luminespib] (partner 0.01 µM)
# Method in brief: as §1
# [3] = compound: C[C@@H](N)c1ccc(C(=O)Nc2ccnc3[nH]ccc23)cc1 + CS(=O)(=O)N1CCN(Cc2cc3nc(-c4cccc5[nH]ncc45)nc(N4CCOCC4)c3s2)CC1 [Pictilisib] (partner 1 µM)
# Method in brief: as §1
Cell Line,relative viability ([1]; first compound 0.08 µM),relative viability ([1]; first compound 0.8 µM),relative viability ([1]; first compound 2.53 µM),relative viability ([1]; first compound 8 µM),relative viability ([2]; first compound 0.04 µM),relative viability ([2]; first compound 0.1265 µM),relative viability ([2]; first compound 0.4 µM),relative viability ([2]; first compound 1.265 µM),relative viability ([2]; first compound 4 µM),relative viability ([3]; first compound 0.04 µM),relative viability ([3]; first compound 0.1265 µM),relative viability ([3]; first compound 0.4 µM),relative viability ([3]; first compound 1.265 µM),relative viability ([3]; first compound 4 µM)
NCI-H2126,0.858,0.832,0.821,0.828,1,0.951,1.01,1.01,0.806,0.632,0.494,0.55,0.349,0.6
NCI-H2170,0.472,0.697,0.72,0.698,0.735,0.708,0.623,0.649,0.502,0.337,0.319,0.295,0.204,0.266
NCI-H2228,0.82,1.31,0.647,0.951,0.069,0.147,0.116,0.122,0.178,0.441,0.503,0.335,0.319,0.491
NCI-H2347,0.784,0.556,0.855,0.823,0.469,0.308,0.784,,0.795,0.472,0.667,0.727,0.832,0.796
NCI-H2405,1.03,0.823,1.5,0.849,0.461,0.805,0.577,0.279,0.238,,0.433,0.399,0.194,0.207
NCI-H3122,0.98,1.05,0.979,1.03,0.0997,0.0955,0.113,0.162,0.124,0.72,0.721,0.716,0.687,0.728
PC-3 [JPC-3],0.835,0.905,0.818,0.786,0.714,0.68,0.73,0.846,0.607,0.741,0.784,0.788,0.632,0.683
PC-14,0.987,1.13,1.06,0.979,,0.183,0.154,,0.132,0.679,0.699,0.684,0.665,0.612
RERF-LC-KJ,1.05,1.01,0.76,0.94,1.22,1.3,1.26,1.2,1.25,0.575,0.541,0.558,0.585,0.492
SK-LU-1,1.25,0.913,0.85,0.88,0.229,0.208,0.187,0.176,0.163,0.589,0.621,0.549,0.608,0.544
SK-MES-1,1.26,1.36,1.37,1.2,0.834,0.796,0.752,0.585,0.714,0.375,0.39,0.359,0.395,0.404
SW 1573,0.778,1.2,1.19,1.09,0.311,0.37,0.212,0.304,0.249,0.467,0.56,0.543,0.539,0.43
